Like-named read-outs stand apart in the source and are kept apart here.
What was measured:
[1] = test system: ischémie cérébrale globale chez la souris; assay: global cerebral ischemia test in mice (cardiac arrest induced by intravenous magnesium chloride; survival time); assay type: in vivo; conditions: Mus musculus, read-out: dose efficace 3 secondes (DE3sec)
Excerpt: Ainsi les composés utilisables selon l'invention ont été soumis au test de l'ischémie cérébrale globale chez la souris. L'ischémie est due à un arrêt cardiaque induit par une injection intraveineuse rapide de chlorure de magnésium. Dans ce test on mesure le "temps de survie", c'est-à-dire l'intervalle entre le moment de l'injection de chlorure de magnésium et le dernier mouvement respiratoire observable de chaque souris. Ce dernier mouvement est considéré comme l'indice ultime d'une fonction du système nerveux central. L'arrêt respiratoire apparaît approximativement 21 secondes après l'injection de chlorure de magnésium. Des souris mâles (SWISS OF₁ IFFA CREDO) sont étudiées par groupes de 10. Elles sont nourries et abreuvées ad libitum avant les essais. Le temps de survie est mesuré 10 minutes après l'administration intrapéritonéale ou 5 minutes après l'administration intraveineuse dans la veine caudale, des composés de formule (I). Les résultats sont donnés sous la forme de la différence entre le temps de survie mesuré dans un groupe de 10 souris ayant reçu le composé et le temps de survie mesuré dans un groupe de 10 souris ayant reçu le liquide véhicule. Les rapports entre le temps de survie et la dose du composé sont enregistrés graphiquement selon une courbe semilogarithmique. Cette courbe permet le calcul de la "dose efficace 3 secondes" (DE3sec), c'est-à-dire la dose (en mg/kg) qui produit une augmentation de 3 secondes du temps de survie par rapport au groupe témoin de 10 souris traitées par le véhicule. Une augmentation de 3 secondes du temps de survie est à la fois significative statistiquement et reproductible. A titre d'exemple, après injection par voie intrapéritonéale, la DE3sec du trans-N-[3-[5-(6-méthoxynaphtalén-1-yl)-1,3-dioxan-2-yl]propyl]acétamide dans ce test est de 11,4 mg/kg, la DE3sec du cis-N-[3-[5-(6-méthoxynaphtalén-1-yl)-1,3-dioxan-2-yl]propyl]acétamide dans ce test est de 6,1 mg/kg et la DE3sec du trans-N-[3-[5-[6-(cyclopropylméthoxy)naphtalén-1-yl]-1,3-dioxan-2-yl]propyl]acétamide dans ce test est de 6,1 mg/kg. Par voie intraveineuse, après solubilisation dans une solution de 2-hydroxypropyl-β-cyclodextrine, la DE3sec du trans-N-[3-[5-(6-méthoxynaphtalén-1-yl)-1,3-dioxan-2-yl]propyl]acétamide dans ce test est de 2,25 mg/kg.

[2] = test system: ischémie focale permanente par occlusion intraluminale de l'artère cérébrale moyenne chez le rat; assay: permanent focal ischemia model by intraluminal occlusion of the middle cerebral artery in the rat (infarct volume); assay type: in vivo; conditions: 1 mg/kg intraperitoneal, given 10 minutes, 2 h 30 and 5 h after occlusion; infarct volume evaluated 24 h after occlusion
Excerpt: L'activité neuroprotectrice des composés de formule (I) a été également démontrée dans un modèle d'ischémie focale permanente par occlusion intraluminale de l'artère cérébrale moyenne chez le rat, selon une méthode analogue à celle décrite dans Stroke, 20, 84-91 (1989). Sous anesthésie au méthohexital sodique, on ligature l'artère ptérygopalatine, l'artère carotidienne commune et l'artère carotidienne externe gauche; on introduit un fil de nylon dans l'artère carotidienne interne sur une longueur d'environ 18 mm correspondant à la distance qui sépare la naissance de l'artère carotidienne interne de celle de l'artère cérébrale moyenne. Les composés sont administrés 10 minutes, 2 heures 30 et 5 heures après l'occlusion, aux doses de 0,3; 1; 3 et 10 mg/kg par voie intrapéritonéale. 24 heures après l'occlusion de l'artère cérébrale moyenne, on sacrifie les animaux et on prélève le cerveau. On évalue le volume de l'infarctus cérébral à partir de la mesure de la surface de la nécrose sur 6 coupes coronales colorées par le chlorure de 2,3,5-triphényltétrazolium. A titre d'exemple le trans-N-[3-[5-(6-méthoxynaphtalén-1-yl)-1,3-dioxan-2-yl]propyl]acétamide réduit le volume de l'infarctus cérébral d'environ 30% à la dose de 1 mg/kg.

[3] = ip, 10 min, intraperitoneal injection, survival time measured 10 minutes after administration, dose giving a 3 second increase of survival time vs vehicle group

Structure (SMILES)	ED (3 s increase of survival time) [1, 3]	réduit le volume de l'infarctus cérébral [2]	ED (3 s increase of survival time) ([1]; 5 min, intravenous route, solubilised in 2-hydroxypropyl-β-cyclodextrine solution, survival time measured 5 minutes after administration)
COc1ccc2c(cccc2[C@H]2CO[C@@H](CCCNC(C)=O)OC2)c1 [cis-N-[3-[5-(6-méthoxynaphtalén-1-yl)-1,3-dioxan-2-yl]propyl]acétamide]	6.1 mg/kg		
COc1ccc2c(cccc2[C@H]2CO[C@H](CCCNC(C)=O)OC2)c1 [trans-N-[3-[5-(6-méthoxynaphtalén-1-yl)-1,3-dioxan-2-yl]propyl]acétamide]	11.4 mg/kg	~30%	2.25 mg/kg
CC(=O)NCCC[C@H]1OC[C@H](c2cccc3cc(OCC4CC4)ccc32)CO1 [trans-N-[3-[5-[6-(cyclopropylméthoxy)naphtalén-1-yl]-1,3-dioxan-2-yl]propyl]acétamide]	6.1 mg/kg		
